Assay results as given in patent publication US8207226B1, “Use of FAAH antagonists for treating dry eye and ocular pain” (Alcon Research, Ltd., priority 2008, dated 2012).

Test system: cornea (capsaicin-induced blinking)
Format: in vivo, Sprague-Dawley rats
Conditions: for reduction of blink rate elicited by capsaicin: topical ocular dosing in 10% cyclodextrin vehicle 5 min before capsaicin (5 μL of 0.0005%), seven week old Sprague-Dawley rats, blinks counted for one minute
From the text: A capsaicin blink test was used to determine the pharmacological effect of two fatty acid amides, oleamide and anandamide. The test measured the pain response of the cornea by the number of times the animal blinked after the application of capsaicin.
Lyophilized anandamide was resuspended in an aqueous 10% cyclodextrin solution that was buffered with an aliquot of 10× phosphate buffered saline (PBS) (Laine et. al., 2001, Pharmaceutical Research. 18:494-499). The test article, either cyclodextrin vehicle or fatty acid amide (FAA), was dosed to both eyes of seven week old Sprague-Dawley rats (n=8, per group) five minutes prior to the application of capsaicin. Blinks were counted after the application of anandamide. Animals were dosed with 5 μL of vehicle in OS eye. After a 5-second period, blinks were counted for one minute. Capsaicin (5 μL of 0.0005%) was dosed in the OD eye. Blinks were counted in the same manner as the OS eye.

solubility in the 10% cyclodextrin vehicle (rat, in vivo) | SMILES | reduction of blink rate elicited by capsaicin | blinking after test article alone (before capsaicin application) (rat, in vivo)
only partial solubility | CCCCCCCC/C=C\CCCCCCCC(N)=O [Oleamide, oleamide] | 20% | 
 | CCCCC/C=C\C/C=C\C/C=C\C/C=C\CCCC(=O)NCCO [anandamide] | 50% | rapid blinking for approximately one minute, followed by normal rates of blinking
